Literature values as cited in patent US20220168408A1, “MULTI-VALENT IMMUNOTHERAPY COMPOSITION AND METHODS OF USE FOR TREATING WT1-POSITIVE CANCERS” (SLSG LIMITED LLC, priority 2019, published 2022).

Tested on: CD4+ and CD8+ responses
Conditions: according to data from preclinical and phase 1 studies

Sequence: SGQAYMFPNAPYLPSCLES (Mutated Homo sapiens) [WT1-122A1 long]
- stimulation of CD4+ and CD8+ responses: stimulate both CD4+ and CD8+ responses
